Experimental data taken from patent US12617837B2, “Composition for use in treatment of allergic diseases” (UNIVERSITY OF TSUKUBA, priority 2019, dated 2026).

B1: AAL (protein, UniProt P18891 2-313, looked up)
Fucose-specific lectin: PTEFLYTSKIAAISWAATGGRQQRVYFQDLNGKIREAQRGGDNPWTGGSSQNVIGEAKLFSPLAAVTWKSAQGIQIRVYCVNKDNILSEFVYDGSKWITGQLGSVGVKVGSNSKLAALQWGGSESAPPNIRVYYQKSNGSGSSIHEYVWSGKWTAGASFGSTVPGTGIGATAIGPGRLRIYYQATDNKIREHCWDSNSWYVGGFSASASAGVSIAAISWGSTPNIRVYWQKGREELYEAAYGGSWNTPGQIKDASRPTPSLPDTFIAANSSGNIDISVFFQASGVSLQQWQWISGKGWSIGAVVPTGTPAGW
B2: PNA (protein, UniProt P02872 24-273, looked up)
Galactose-binding lectin: AETVSFNFNSFSEGNPAINFQGDVTVLSNGNIQLTNLNKVNSVGRVLYAMPVRIWSSATGNVASFLTSFSFEMKDIKDYDPADGIIFFIAPEDTQIPAGSIGGGTLGVSDTKGAGHFVGVEFDTYSNSEYNDPPTDHVGIDVNSVDSVKTVPWNSVSGAVVKVTVIYDSSTKTLSVAVTNDNGDITTIAQVVDLKAKLPERVKFGFSASGSLGGRQIHLIRSWSFTSTLITTTRRSIDNNEKKIMNMASA

What was measured:
Assay type in all cases: binding
[1] = tested on: lectins (96 lectins of Table 2); assay: Lectin microarray analysis of Clec10a ligand in HDM (Table 6); settings: for Signal value, Target: Target: Pull-down assay sample from HDM using Clec10a-Fc (Clec10a ligand), signal at each lectin spot of the lectin microarray
Experimental: Lectin microarrays were made using a non-contact microarray printing robot (MicroSys4000; Genomic Solutions) according to the previous method. Samples were fluorescently labeled with Cy3 Mono-Reactive dye (Ge) and excess Cy3 was removed using a Sephadex g-25 desalting column (Ge). After 10 fold dilution with a probe solution (25 mM Tris-HCl, pH 7.5, 140 mM NaCl) (TBS) containing 2.7 mM KCl, 1 mM CaCl2, 1 mM MnCl2, and 1% Triton X-100, a Cy3-labeled sample was applied to a lectin microarray and incubated at 20° C. overnight. The sample was washed with a probe solution, and a fluorescence image was obtained using an evanescent-field activated fluorescence scanner (Bio-Rad scan 200, Rexxam Co. Ltd.). Lectin signals in triplicate spots were averaged for each protein sample and normalized to an average value of 96 lectins.

human IgG1 = assay: Glycan microarray probed with human IgG1 (control of Table 7)
Clec10a-Fc = target: T1, Clec10a-Fc (Mus musculus, UniProt P49300); assay: Sugar conjugate (glycan) microarray analysis of Clec10a-Fc (Table 7); settings: for Signal value, Clec10a-Fc: glycan microarray probed with Clec10a-Fc; for Signal value, Clec10a-Fc with EDTA: glycan microarray probed with Clec10a-Fc with EDTA
T1 construct: cloning the extracellular region of mouse Clec10a into a pME18S expression vector; made in house; host or cells: HEK293T cells
T1 sequence (P49300 57-304 limits assumed): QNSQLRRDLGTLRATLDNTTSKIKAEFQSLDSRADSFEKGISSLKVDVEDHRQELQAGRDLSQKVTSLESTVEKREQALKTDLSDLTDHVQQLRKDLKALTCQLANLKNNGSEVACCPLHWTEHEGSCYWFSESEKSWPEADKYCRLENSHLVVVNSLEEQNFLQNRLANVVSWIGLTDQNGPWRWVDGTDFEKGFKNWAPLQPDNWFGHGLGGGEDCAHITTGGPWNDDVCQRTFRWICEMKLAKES
Experimental: A sugar conjugate microarray containing 98 sugar conjugates (Table 3) was prepared according to a known method using a non-contact microarray printing robot (MicroSys 4000; Genomic Solutions).

Molecule | Signal value, Target [1] | Signal value, human IgG1 (human IgG1) | Signal value, Clec10a-Fc (Clec10a-Fc) | Signal value, Clec10a-Fc with EDTA (Clec10a-Fc) | Binding to lectins in lectin microarray ([1]; Cy3-labeled sample)
PHAL | 0 | 0 | 0 | 0 | 
Clec10a |  |  |  |  | most strongly bound to the lectins of Maclura pomifera (MPA)
rMalectin | 0 | 0 | 0 | 0 | 
OC[C@H]1O[C@@H](O)[C@@H](O)[C@@H](O)[C@@H]1O [βMan] |  | 0 | 0 | 0 | 
OC[C@H]1O[C@H](O)[C@@H](O)[C@@H](O)[C@@H]1O [αMan] |  | 0 | 0 | 0 | 
OC[C@H]1O[C@H](O[C@@H]2[C@@H](O)[C@H](O)O[C@H](CO)[C@@H]2O)[C@H](O)[C@@H](O)[C@H]1O [Galα1-3Gal] |  | 0 | 144 | 0 | 
CC(=O)N[C@@H]1[C@@H](O)[C@H](O[C@@H]2O[C@H](CO)[C@H](O)[C@H](O)[C@H]2O[C@@H]2O[C@@H](C)[C@@H](O)[C@@H](O)[C@@H]2O)[C@@H](CO)O[C@H]1O [H type2] |  | 0 | 0 | 0 | 
CC(=O)N[C@@H]1[C@@H](O)[C@H](O[C@@H]2O[C@H](CO)[C@H](O)[C@H](O[C@]3(C(=O)O)C[C@H](O)[C@@H](NC(C)=O)[C@H]([C@H](O)[C@H](O)CO)O3)[C@H]2O)[C@@H](CO)O[C@H]1O [3′SLN] |  | 0 | 7 | 0 | 
CC(=O)N[C@@H]1[C@@H](O)[C@H](O[C@@H]2O[C@H](CO)[C@H](O)[C@H](O[C@]3(C(=O)O)C[C@H](O)[C@@H](NC(C)=O)[C@H]([C@H](O)[C@H](O)CO)O3)[C@H]2O)[C@@H](CO)O[C@H]1O [[3′S]LN] |  | 0 | 0 | 0 | 
CC(=O)N[C@@H]1[C@@H](O[C@@H]2O[C@H](CO)[C@H](O)[C@H](OS(=O)(=O)O)[C@H]2O)[C@H](O)[C@@H](CO)O[C@H]1O [[3′S]Lec] |  | 0 | 0 | 0 | 
OC[C@H]1O[C@H](O[C@H]2C(O)O[C@H](CO)[C@H](O)[C@@H]2O)[C@H](O)[C@@H](O)[C@H]1O (stereo partly drawn) [Galα1-2Gal] |  | 0 | 3 | 0 | 
CC(=O)N[C@@H]1[C@@H](O[C@@H]2O[C@H](CO)[C@H](O)[C@H](O[C@]3(C(=O)O)C[C@H](O)[C@@H](NC(C)=O)[C@H]([C@H](O)[C@H](O)CO)O3)[C@H]2O)[C@H](O)[C@@H](CO)O[C@H]1O [3′SiaLec] |  | 0 | 4 | 0 | 
CC(=O)N[C@@H]1[C@@H](O[C@@H]2O[C@H](CO)[C@H](O)[C@H](O)[C@H]2O)[C@@H](O)[C@@H](CO[C@@H]2O[C@H](CO)[C@@H](O)[C@H](O)[C@H]2NC(C)=O)O[C@@H]1O [Core2] |  | 0 | 4824 | 0 | 
CC(=O)N[C@@H]1[C@@H](O[C@@H]2O[C@H](CO)[C@H](O)[C@H](O)[C@H]2O[C@@H]2O[C@@H](C)[C@@H](O)[C@@H](O)[C@@H]2O)[C@H](O[C@@H]2O[C@@H](C)[C@@H](O)[C@@H](O)[C@@H]2O)[C@@H](CO)O[C@H]1O [Leb] |  | 0 | 0 | 0 | 
CC(=O)N[C@@H]1[C@@H](O[C@@H]2O[C@H](CO)[C@H](O)[C@H](O[C@]3(C(=O)O)C[C@H](O)[C@@H](NC(C)=O)[C@H]([C@H](O)[C@H](O)CO)O3)[C@H]2O)[C@H](O[C@@H]2O[C@@H](C)[C@@H](O)[C@@H](O)[C@@H]2O)[C@@H](CO)O[C@H]1O [sLea] |  | 0 | 0 | 0 | 
CC(=O)N[C@H]1[C@H]([C@H](O)[C@H](O)CO)O[C@@](OC[C@H]2O[C@@H](O[C@H]3[C@H](O)[C@@H](O)[C@H](O)O[C@@H]3CO)[C@H](O)[C@@H](O)[C@H]2O)(C(=O)O)C[C@@H]1O [6′SL] |  | 0 | 1 | 0 | 
O=S(=O)(O)O[C@@H]1[C@@H](O)[C@H](O)O[C@H](CO)[C@@H]1O [[3S] βGal] |  | 0 | 3 | 0 | 
OC[C@H]1O[C@@H](O)[C@H](O)[C@@H](O)[C@H]1O [βGal] |  | 0 | 1867 | 0 | 
CC(=O)N[C@H]1[C@H](O[C@@H]2[C@H](O)[C@@H](O)[C@H](O[C@H]3[C@H](O)[C@@H](O)[C@H](O)O[C@@H]3CO)O[C@@H]2CO)O[C@H](CO)[C@H](O)[C@@H]1O [Gα2] |  | 0 | 0 | 0 | 
CC(=O)N[C@@H]1[C@@H](O[C@@H]2O[C@@H](C)[C@@H](O)[C@@H](O)[C@@H]2O)[C@H](O[C@@H]2O[C@H](CO)[C@H](O)[C@H](O[C@]3(C(=O)O)C[C@H](O)[C@@H](NC(C)=O)[C@H]([C@H](O)[C@H](O)CO)O3)[C@H]2O)[C@@H](CO)O[C@H]1O [sLex] |  | 0 | 1 | 0 | 
CC(=O)N[C@H]1[C@H]([C@H](O)[C@H](O)CO)O[C@@](O[C@H](CO)[C@@H](O)[C@@H]2O[C@@](O[C@H](CO)[C@@H](O)[C@@H]3O[C@@](O)(C(=O)O)C[C@H](O)[C@H]3NC(C)=O)(C(=O)O)C[C@H](O)[C@H]2NC(C)=O)(C(=O)O)C[C@@H]1O [Sia3] |  | 0 | 19 | 3 | 
CC(=O)N[C@@H]1[C@@H](O[C@@H]2O[C@H](CO)[C@H](O)[C@H](O)[C@H]2NC(C)=O)[C@@H](O)[C@@H](CO)O[C@H]1O [di-GalNAcβ] |  | 0 | 65 | 0 | 
rGal7 | 0 | 0 | 0 | 0 | 
CC(=O)N[C@@H]1[C@@H](O)[C@H](O[C@@H]2O[C@H](CO)[C@H](O)[C@H](O)[C@H]2O)[C@@H](COS(=O)(=O)O)O[C@H]1O [[6S]LN] |  | 0 | 0 | 0 | 
B1 | 7508 |  |  |  | 
B2 | 10699 |  |  |  | 
